Measured values taken from PubChem BioAssay (NCI).
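GI50: concentration for 50% inhibition of growth. TGI denotes the concentration required for complete inhibition of growth.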

How the values were obtained:
Assay in all cases: inhibition of tumour cell growth, NCI panel, 384-well format
TK-10 renal = tested on: TK-10 renal
786-0 renal = tested on: 786-0 renal
DU-145 prostate = tested on: DU-145 prostate
HCC-2998 colon = tested on: HCC-2998 colon
COLO 205 colon = tested on: COLO 205 colon
A498 renal = tested on: A498 renal
SK-MEL-28 melanoma = tested on: SK-MEL-28 melanoma
T-47D breast = tested on: T-47D breast
KM12 colon = tested on: KM12 colon
K-562 leukemia = tested on: K-562 leukemia
NCI-H226 lung = tested on: NCI-H226 lung
U251 glioblastoma = tested on: U251 glioblastoma
NCI-H322M lung = tested on: NCI-H322M lung

SMILES: O=C(c1cc(Cc2n[nH]c(=O)c3ccccc23)ccc1F)N1CCN(C(=O)C2CC2)CC1
- GI50 (TK-10 renal): > 100 µM
- TGI (TK-10 renal): > 100 µM
- GI50 ([…]-0 renal): > 100 µM
- TGI (786-0 renal): > 100 µM
- GI50 (DU-145 prostate): 53.5 µM
- TGI (DU-145 prostate): > 100 µM
- GI50 (HCC-2998 colon): > 29.2 µM
- TGI (HCC-2998 colon): > 100 µM
- GI50 (COLO 205 colon): > 77 µM
- TGI (COLO 205 colon): > 100 µM
- GI50 (A498 renal): > 100 µM
- TGI (A498 renal): > 100 µM
- GI50 (SK-MEL-28 melanoma): > 100 µM
- TGI (SK-MEL-28 melanoma): > 100 µM
- GI50 (T-47D breast): 34.8 µM
- TGI (T-47D breast): > 100 µM
- GI50 (KM12 colon): > 100 µM
- TGI (KM12 colon): > 100 µM
- GI50 (K-562 leukemia): 33.5 µM
- TGI (K-562 leukemia): > 100 µM
- GI50 (NCI-H226 lung): 34.5 µM
- TGI (NCI-H226 lung): > 100 µM
- GI50 (U251 glioblastoma): 27.3 µM
- TGI (U251 glioblastoma): > 100 µM
- GI50 (NCI-H322M lung): > 100 µM
- TGI (NCI-H322M lung): > 100 µM
